# Reference: US6004749A, “Method for identifying compounds affecting RNA/RNA binding protein interactions” (Message Pharmaceuticals, priority 1997, dated 1999)
# Entries after “also recorded” stand apart in the source; their conditions may differ.
# Experiments:
# [1] = tested on: IRE RNA / RNA binding protein (K562 protein extract); test: Filter binding assay, IRE RNA with K562 protein extract; settings: hemin 1 to 100 μM; FeCl3 1 μM to 1 mM; desferroxiamine 1 μM to 1 mM
# From the text: FIG. 6 is a graph of the amount of radioactively labeled RNA retained on a filter (expressed in percent of the amount of RNA retained on a filter in a reference binding solution) following loading of various binding solutions. All of the binding solutions contained radioactively labeled IRE RNA either alone or including various other components. The first column represents a binding solution without RNA binding protein. The remaining columns represent binding solutions containing RNA binding protein (K562 extract). […] Desferal and des indicate that the binding solutions included the indicated amount of desferroxiamine as a test compound.
# FIG. 8 is a graph of the amount of radioactively labeled RNA retained on a filter (expressed in percent of the amount of RNA retained on a filter in a reference binding solution) following loading of various binding solutions. Alternate columns correspond to binding solutions containing radioactively labeled AUUUA RNA or IRE RNA, either alone or including various other components. The first two column represents binding solutions without RNA binding protein. The remaining columns represent binding solution containing RNA binding protein (K562 extract). Columns 5 through 40 correspond to binding solutions including the indicated amount of the indicated test compound.
# All binding reactions are performed in 96-well polystyrene plates in a final volume of 10 or 100 μl. The assays were constituted and performed as described below. […]
# Binding assays were performed with wild-type IRE RNA and K562 protein extract in the presence of sources of iron or iron chelators to determine the ability of the filter assay to detect the modulation of binding interactions by small molecules. […] The reactions were analyzed by gel shifts to visualize the results of the filter assay.
# [2] = tested on: AUUUA RNA / RNA binding protein (K562 extract); test: High throughput filter binding assay, 32P-labeled AUUUA RNA with K562 protein extract
# From the text: FIG. 7 is a graph of the amount of radioactively labeled RNA retained on a filter (expressed in percent of the amount of RNA retained on a filter in a reference binding solution) following loading of various binding solutions. All of the binding solutions contained radioactively labeled AUUUA RNA either alone or including various other components. The first column represents a binding solution without RNA binding protein. The remaining columns represent binding solution containing RNA binding protein (K562 extract). Columns 3 through 8 correspond to binding solutions including the indicated test compound.
# (§1) All binding reactions are performed in 96-well polystyrene plates in a final volume of 10 or 100 μl. The assays were constituted and performed as described below. Specifically, assays were performed by (1) forming a binding solution including RNA molecules, 7.5 mM BTP at pH 8.5, 10 mM KCl, 5 mM MgCl2, 0.2 mM DTT, and 10% glycerol, (2) heating the binding solution to denature the RNA molecules, (3) cooling the binding solution, (4) adding RNA binding proteins to the binding solution, (5) loading the binding solution onto a filter, and (6) detecting the amount RNA retained on the filter. It is preferred that the samples be loaded on to a filter of either pure nitrocellulose or a mixed cellulose ester (MCA). It is also preferred that the filters have a 0.2μ pore size, although filters with a 0.45μ pore size will also bind the RNA/RNA binding protein complex. It is preferred that, prior to loading the binding solution onto a filter, the volume is increased. For this purpose, it is preferred that the dilution solution has the same buffer components as the binding solution except lacking the density agent. For a 10 μl volume it is preferred that the final volume be about 100 μl by addition of 1× binding buffer. It is also preferred that the binding solution be loaded onto the filter under vacuum. It is also preferred that the filter is washed twice prior to detecting the amount of RNA retained on the filter. Preferably the wash solution had the same composition as the dilution solution. However, TE (pH 8.0), PBS, or TCA can also be used as wash solutions. In most of the assays described below, the RNA molecules were labeled with ^32 P.
# The library was initially screened at 10 μM against ^32 P-labeled AUUUA RNA. Several methods of introducing the compounds into the binding reaction were tested. Initially the compounds were coincubated with the RNA and protein, producing modest results. Next, preincubation with either the protein extract or the RNA was tried with improved results.
# Seventeen compounds were chosen for further analysis at 100 nM, 1 μM and 10 μM using both AUUUA and IRE RNAs based on the results from four screening efforts (Exps. 29-31, 33). Table 2 summarizes the results from these compounds at 10 μM. The results are also shown graphically in FIG. 7. […] Compounds D9 and H2, chosen as negative controls from the initial screening, continued to have no effect in the dose dependent screen (Exp. 33) and were identified as vehicle controls.
# TNF-α production = settings: previously shown; cited from earlier work
# [3] = tested on: TNF-α 3' untranslated region / human cell RBP's; test: High throughput screening assay, TNF-α 3' untranslated region with total protein extract; type: binding; settings: TNF-α 3' UTR; for EC50: read-out: EC50 on in vitro binding; for effect on TNF-α RNA/RBP interaction, in words: total protein extract
# Description: FIG. 9A is a graph of the level of RNA/RBP interactions (between the TNF-α 3' untranslated region and human cell RBP's) in the presence or absence of test compounds. […] The remaining columns include RNA plus extract in the presence of specific compounds.
# as §1
# This example describes identification of compounds which either increase or decrease the binding interaction between a site within an RNA molecule which interacts with an RBP. This example makes use of a total protein extract which allows identification of compounds that modulate interactions without the need for identification of the specific RBP(s) involved.
# [4] = tested on: iron response element RNA/RBP interaction; test: Control assay using the iron response element (Example 4); type: binding; settings: increasing concentrations; unrelated RNA specificity control
# [5] = compound 10 μM, RNA & K562 = 100.00
molecule,measurement,setting,value
[Cl][Fe]([Cl])[Cl] [FeCl3],"modulation of IRE/protein binding by iron sources or iron chelator, in words",[1],concentration-dependent inhibition of binding
"CC(=NNC(=N)N)c1cc(NC(=O)CCCCCCCCC(=O)Nc2cc(C(C)=NNC(=N)N)cc(C(C)=NNC(=N)N)c2)cc(C(C)=NNC(=N)N)c1 [Compound G10, CNI-1493]","effect on counts (AUUUA RNA binding), in words","[2]; 10 μM, AUUUA RNA",substantial increase in counts in 3 of the 4 experiments
same,"Avg. % (labeled AUUUA RNA retained on filter, average of Experiments #33, #31, #30, #29)",[2]; [5],111.00%
same,"Labeled AUUUA RNA retained on filter, percent of RNA & K562 control, Experiment #29",[2]; [5],114.53%
same,"Labeled AUUUA RNA retained on filter, percent of RNA & K562 control, Experiment #30",[2]; [5],66.94%
same,"Labeled AUUUA RNA retained on filter, percent of RNA & K562 control, Experiment #31",[2]; [5],127.28%
same,"Labeled AUUUA RNA retained on filter, percent of RNA & K562 control, Experiment #33",[2]; [5],135.24%
same,"effect on TNF-α production, in words",TNF-α production,post-transcriptionally inhibit TNF-α production
CC(=NNC(=N)N)c1cc(NC(=O)CCCCCCC(=O)Nc2cc(C(C)=NNC(=N)N)cc(C(C)=NNC(=N)N)c2)cc(C(C)=NNC(=N)N)c1 [SYM 1710],potentiation of binding,[3],approximately 3 fold
same,EC50,[3],23 µM
"CC(=O)N(O)CCCCCNC(=O)CCC(=O)N(O)CCCCCNC(=O)CCC(=O)N(O)CCCCCN [Desferroxiamine, desferroxiamine]","modulation of IRE/protein binding by iron sources or iron chelator, in words",[1],did not change the amount IRE/protein complex formed
hemin,"modulation of IRE/protein binding by iron sources or iron chelator, in words",[1],concentration-dependent inhibition of binding
Cc1c(CCN)c2c3n1CCCC3CCC2 (centres unmarked) [SYM 1405],"effect on iron response element binding, in words",[4],little effect on the iron response element
same,inhibition of binding,[3],about 40%
same,"effect on TNF-α RNA/RBP interaction, in words",[3],inhibited binding of TNF-α in a concentration-dependent manner; also recorded: concentration-dependent inhibition
same,EC50,[3],~2 µM
O=[N+]([O-])c1ccc(C(Cl)=NCCCN=Cc2ccc3c(c2)OCO3)cc1 [SYM 1301],"effect on TNF-α RNA/RBP interaction, in words",[3],no effect
